Test results taken from the supplement of paper PMC10307832.

Tests used:
Assay in all cases: relative viability (nuclei count vs DMSO), 5 days (fraction); higher = more cells survive
[1] = test system: HOP-62
Summary of the method: (§1)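 One day after seeding in 1536-well plates, lung cancer cell lines were dosed by pin tool. Dosing was either single-drug or a fixed anchor-drug dose plus five library-drug doses (not always all listed) in √10 steps. After 5 days, nuclei were stained in one fix-and-stain step and counted on 4× images, and relative viability is the nuclei count of treated wells over that of vehicle wells, given as the median of duplicate plates.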

[2] = test system: NCI-H3122
Summary of the method: as §1

[3] = test system: NCI-H2085
Summary of the method: as §1

[4] = test system: NCI-H2347
Summary of the method: as §1

[5] = test system: NCI-H596
Summary of the method: as §1

[6] = test system: NCI-H1734
Summary of the method: as §1

[7] = test system: LK-2
Summary of the method: as §1

[8] = test system: RERF-LC-KJ
Summary of the method: as §1

[9] = test system: HCC-366
Summary of the method: as §1

[10] = test system: LC-2-ad
Summary of the method: as §1

[11] = test system: PC-14
Summary of the method: as §1

[12] = test system: CAL-12T
Summary of the method: as §1

[13] = test system: SW 900
Summary of the method: as §1

[14] = test system: HCC-78
Summary of the method: as §1

[15] = test system: NCI-H1993
Summary of the method: as §1

[16] = test system: NCI-H2405
Summary of the method: as §1

[17] = test system: NCI-H1355
Summary of the method: as §1

[18] = test system: ChaGo-K-1
Summary of the method: as §1

[19] = test system: EMC-BAC-2
Summary of the method: as §1

[20] = test system: NCI-H2009
Summary of the method: as §1

[21] = test system: SW 1573
Summary of the method: as §1

[22] = test system: SK-MES-1
Summary of the method: as §1

`CCCCCCCCCCCC1=C(O)C(=O)C=C(O)C1=O` [Embelin] + NC(=O)Nc1cc(-c2cccc(F)c2)sc1C(=O)N[C@H]1CCCNC1 [AZD7762] (partner 0.2 µM) showed a relative viability ([1]; first compound 0.08 µM) of 0.384, a relative viability ([1]; first compound 0.8 µM) of 0.568 and a relative viability ([1]; first compound 2.53 µM) of 0.734. It also gave a relative viability ([1]; first compound 8 µM) of 0.363, a relative viability ([2]; first compound 0.08 µM) of 0.946 and a relative viability ([2]; first compound 0.8 µM) of 1.06. For the same compound, the relative viability ([2]; first compound 2.53 µM) was 1.06, the relative viability ([2]; first compound 8 µM) was 1.01 and the relative viability ([3]; first compound 0.08 µM) was 0.956. It also gave a relative viability ([3]; first compound 0.8 µM) of 1.09, a relative viability ([3]; first compound 2.53 µM) of 0.93 and a relative viability ([3]; first compound 8 µM) of 1.03. The relative viability ([4]; first compound 0.08 µM) was 0.841, the relative viability ([4]; first compound 0.8 µM) was 0.85 and the relative viability ([4]; first compound 2.53 µM) was 0.722. The relative viability ([4]; first compound 8 µM) was 0.67, the relative viability ([5]; first compound 0.08 µM) was 1.08 and the relative viability ([5]; first compound 0.8 µM) was 1.27. For the same compound, the relative viability ([5]; first compound 2.53 µM) was 1.26, the relative viability ([5]; first compound 8 µM) was 1.01 and the relative viability ([6]; first compound 0.08 µM) was 0.587. The relative viability ([6]; first compound 0.8 µM) was 0.692, the relative viability ([6]; first compound 2.53 µM) was 0.593 and the relative viability ([6]; first compound 8 µM) was 0.622. The relative viability ([7]; first compound 0.08 µM) was 0.497, the relative viability ([7]; first compound 0.8 µM) was 0.543 and the relative viability ([7]; first compound 2.53 µM) was 0.497. It also gave a relative viability ([7]; first compound 8 µM) of 0.351, a relative viability ([8]; first compound 0.08 µM) of 1.02 and a relative viability ([8]; first compound 0.8 µM) of 1.15. The relative viability ([8]; first compound 2.53 µM) was 1.13, the relative viability ([8]; first compound 8 µM) was 1 and the relative viability ([9]; first compound 0.08 µM) was 0.317. The relative viability ([9]; first compound 0.8 µM) was 0.314, the relative viability ([9]; first compound 2.53 µM) was 0.291 and the relative viability ([9]; first compound 8 µM) was 0.281. The relative viability ([10]; first compound 0.08 µM) was 0.884, the relative viability ([10]; first compound 0.8 µM) was 0.888 and the relative viability ([10]; first compound 2.53 µM) was 0.916. The relative viability ([10]; first compound 8 µM) was 0.814, the relative viability ([11]; first compound 0.08 µM) was 0.339 and the relative viability ([11]; first compound 0.8 µM) was 0.419. For the same compound, the relative viability ([11]; first compound 2.53 µM) was 0.345, the relative viability ([11]; first compound 8 µM) was 0.258 and the relative viability ([12]; first compound 0.08 µM) was 0.641. For the same compound, the relative viability ([12]; first compound 0.8 µM) was 0.697, the relative viability ([12]; first compound 2.53 µM) was 0.61 and the relative viability ([12]; first compound 8 µM) was 0.676. The relative viability ([13]; first compound 0.08 µM) was 0.556, the relative viability ([13]; first compound 0.8 µM) was 0.624 and the relative viability ([13]; first compound 2.53 µM) was 0.502. It also gave a relative viability ([13]; first compound 8 µM) of 0.628, a relative viability ([14]; first compound 0.08 µM) of 0.555 and a relative viability ([14]; first compound 0.8 µM) of 0.773. It also gave a relative viability ([14]; first compound 2.53 µM) of 0.661, a relative viability ([14]; first compound 8 µM) of 0.647 and a relative viability ([15]; first compound 0.08 µM) of 0.821. For the same compound, the relative viability ([15]; first compound 0.8 µM) was 0.723, the relative viability ([15]; first compound 2.53 µM) was 0.89 and the relative viability ([15]; first compound 8 µM) was 0.606. The relative viability ([16]; first compound 0.08 µM) was 0.696, the relative viability ([16]; first compound 0.8 µM) was 0.838 and the relative viability ([16]; first compound 2.53 µM) was 0.876. It also gave a relative viability ([16]; first compound 8 µM) of 0.716, a relative viability ([17]; first compound 0.08 µM) of 0.821 and a relative viability ([17]; first compound 0.8 µM) of 0.802. The relative viability ([17]; first compound 2.53 µM) was 0.836, the relative viability ([17]; first compound 8 µM) was 0.743 and the relative viability ([18]; first compound 0.08 µM) was 0.861. For the same compound, the relative viability ([18]; first compound 0.8 µM) was 0.922, the relative viability ([18]; first compound 2.53 µM) was 0.922 and the relative viability ([18]; first compound 8 µM) was 0.874. The relative viability ([19]; first compound 0.08 µM) was 1.12, the relative viability ([19]; first compound 0.8 µM) was 1.22 and the relative viability ([19]; first compound 2.53 µM) was 1.13. The relative viability ([19]; first compound 8 µM) was 1.06.

In the case of `CCCCCCCCCCCC1=C(O)C(=O)C=C(O)C1=O` [Embelin] + Nc1ncn([C@H]2C[C@H](O)[C@@H](CO)O2)c(=O)n1 [Decitabine] (partner 2 µM), the relative viability ([1]; first compound 0.08 µM) is reported as 0.193, the relative viability ([1]; first compound 0.8 µM) is reported as 0.22 and the relative viability ([1]; first compound 2.53 µM) is reported as 0.205. For the same compound, the relative viability ([1]; first compound 8 µM) was 0.19, the relative viability ([20]; first compound 0.08 µM) was 0.407 and the relative viability ([20]; first compound 0.8 µM) was 0.412. It also gave a relative viability ([20]; first compound 2.53 µM) of 0.369, a relative viability ([20]; first compound 8 µM) of 0.351 and a relative viability ([2]; first compound 0.08 µM) of 0.385. For the same compound, the relative viability ([2]; first compound 0.8 µM) was 0.446, the relative viability ([2]; first compound 2.53 µM) was 0.419 and the relative viability ([2]; first compound 8 µM) was 0.397. It also gave a relative viability ([21]; first compound 0.08 µM) of 0.422, a relative viability ([21]; first compound 0.8 µM) of 0.674 and a relative viability ([21]; first compound 2.53 µM) of 0.654. For the same compound, the relative viability ([21]; first compound 8 µM) was 0.456, the relative viability ([22]; first compound 0.08 µM) was 0.436 and the relative viability ([22]; first compound 0.8 µM) was 0.396. The relative viability ([22]; first compound 2.53 µM) was 0.361, the relative viability ([22]; first compound 8 µM) was 0.266 and the relative viability ([3]; first compound 0.08 µM) was 0.538. It also gave a relative viability ([3]; first compound 0.8 µM) of 0.602, a relative viability ([3]; first compound 2.53 µM) of 0.531 and a relative viability ([3]; first compound 8 µM) of 0.504. For the same compound, the relative viability ([4]; first compound 0.08 µM) was 0.618, the relative viability ([4]; first compound 0.8 µM) was 0.72 and the relative viability ([4]; first compound 2.53 µM) was 0.671. For the same compound, the relative viability ([4]; first compound 8 µM) was 0.592, the relative viability ([5]; first compound 0.08 µM) was 0.945 and the relative viability ([5]; first compound 0.8 µM) was 0.958. For the same compound, the relative viability ([5]; first compound 2.53 µM) was 1.19, the relative viability ([5]; first compound 8 µM) was 1.06 and the relative viability ([6]; first compound 0.08 µM) was 0.514. For the same compound, the relative viability ([6]; first compound 0.8 µM) was 0.56, the relative viability ([6]; first compound 2.53 µM) was 0.56 and the relative viability ([6]; first compound 8 µM) was 0.516. For the same compound, the relative viability ([7]; first compound 0.08 µM) was 0.287, the relative viability ([7]; first compound 0.8 µM) was 0.348 and the relative viability ([7]; first compound 2.53 µM) was 0.406. For the same compound, the relative viability ([7]; first compound 8 µM) was 0.332, the relative viability ([8]; first compound 0.08 µM) was 0.775 and the relative viability ([8]; first compound 0.8 µM) was 0.652. The relative viability ([8]; first compound 2.53 µM) was 0.774, the relative viability ([8]; first compound 8 µM) was 0.514 and the relative viability ([9]; first compound 0.08 µM) was 0.341. For the same compound, the relative viability ([9]; first compound 0.8 µM) was 0.306, the relative viability ([9]; first compound 2.53 µM) was 0.372 and the relative viability ([9]; first compound 8 µM) was 0.336. For the same compound, the relative viability ([10]; first compound 0.08 µM) was 0.788, the relative viability ([10]; first compound 0.8 µM) was 0.79 and the relative viability ([10]; first compound 2.53 µM) was 0.795. The relative viability ([10]; first compound 8 µM) was 0.782, the relative viability ([11]; first compound 0.08 µM) was 0.254 and the relative viability ([11]; first compound 0.8 µM) was 0.21. The relative viability ([11]; first compound 2.53 µM) was 0.163, the relative viability ([11]; first compound 8 µM) was 0.209 and the relative viability ([13]; first compound 0.08 µM) was 0.449. For the same compound, the relative viability ([13]; first compound 0.8 µM) was 0.402, the relative viability ([13]; first compound 2.53 µM) was 0.466 and the relative viability ([13]; first compound 8 µM) was 0.454. The relative viability ([14]; first compound 0.08 µM) was 0.739, the relative viability ([14]; first compound 0.8 µM) was 0.751 and the relative viability ([14]; first compound 2.53 µM) was 0.71. It also gave a relative viability ([14]; first compound 8 µM) of 0.675, a relative viability ([15]; first compound 0.08 µM) of 0.481 and a relative viability ([15]; first compound 0.8 µM) of 0.608. It also gave a relative viability ([15]; first compound 2.53 µM) of 0.627, a relative viability ([15]; first compound 8 µM) of 0.548 and a relative viability ([16]; first compound 0.08 µM) of 0.764. For the same compound, the relative viability ([16]; first compound 0.8 µM) was 0.89, the relative viability ([16]; first compound 2.53 µM) was 0.738 and the relative viability ([16]; first compound 8 µM) was 0.703. It also gave a relative viability ([17]; first compound 0.08 µM) of 0.333, a relative viability ([17]; first compound 0.8 µM) of 0.394 and a relative viability ([17]; first compound 2.53 µM) of 0.421. It also gave a relative viability ([17]; first compound 8 µM) of 0.358, a relative viability ([18]; first compound 0.08 µM) of 0.523 and a relative viability ([18]; first compound 0.8 µM) of 0.531. For the same compound, the relative viability ([18]; first compound 2.53 µM) was 0.507, the relative viability ([18]; first compound 8 µM) was 0.484 and the relative viability ([19]; first compound 0.08 µM) was 0.945. The relative viability ([19]; first compound 0.8 µM) was 1.01, the relative viability ([19]; first compound 2.53 µM) was 0.958 and the relative viability ([19]; first compound 8 µM) was 0.955.
